The test system of data set [1] is Dr2b restricted human T cell clones reactive to MBP. As to the kind of experiment: Human T cell proliferation, Dr2b restricted clones. Type of data set: cell-based. To be noted: Dr2b restricted clone 5F6, 50 μM, FIG. 19. The method, then: (§1) Human T cells reactive to MBP (83-99) may alternatively be used to measure the ability of the peptide analog to inhibit proliferation of T cells induced by native MBP (83-99) peptide. MBP-specific T cells may be obtained as previously described by Martin et al., J. Immunol. 148:1359-1366, 1992. Briefly, T cell lines are established by culture of human T cells with irradiated, DR-matched peripheral blood cells in MEM supplemented with 2 mM L-glutamine, 50 μg/ml gentamicin, penicillin and streptomycin, 100 U/ml rIL-2, and 10% human AB negative serum. Proliferation of these T cell lines is stimulated by culturing a clone with varying concentration (1.1-30 μM) of native […] peptide, 50 μM of the peptide analog or SWM peptide, in the presence of irradiated, DR matched peripheral blood cells, following incubation for approximately 60 hours, the cells are pulsed with ^3H-thymidine for 12 hours and harvested. The amount of incorporated ^3H-thymidine is measured.
The ability of the peptide analogs NBI-5719, 5748, 5765, 5788 and 5789 (SEQ ID NOs: 4-8 respectively) to affect human T cell proliferation was assessed. A constant amount of peptide analog or the control peptide SWM (50 μM) was cultured with varying concentrations of native MBP(83-99) peptide (1.1-30 μM) in the presence of irradiated, DR matched peripheral blood cells and T cell clones derived from various MS patients. Human T cells (1×10^6) were cultured with DR matched, irradiated peripheral blood cells (PBL, 5×10^6) in medium containing IMDM supplemented with 3 μM MBP83-99, 2 mM L-glutamine, 50 μg/ml gentamicin penicillin/streptomycin, 100 U/ml r1L-2 and 10% human AB-negative serum. Cells were cultured for approximately 60 hours, pulsed with tritiated thymidine for 12 hours, and harvested. The amount of tritiated thymidine incorporated was measured, and the data represented as the mean plus or minus the standard error of the mean of replicate samples.
The ability of the peptide analog to inhibit the proliferative response of MBP-reactive T cells isolated from Dr2b (DrB1* 1501) individuals was determined. A constant amount of NBI-5788 (50 μM) was cultured with varying concentrations of native peptide (1.1-30 μM) in the presence of irradiated, DR matched peripheral blood cells and T cell clones derived from various MS patients.

The test system of data set [2] is Dr2b-restricted T cell clone 5F6. As to the kind of experiment: Cytokine production (TNF-α, IFN-γ) by T cell clone 5F6, EIA. Type of data set: cell-based, human. To be noted: even at concentrations of 50 μM (data not shown). The method, then: As discussed in detail below, the production of cytokines may also be assessed. In particular, TNF-α and IFN-γ production are especially interesting. These pro-inflammatory cytokines are thought to play a role in the pathogenesis of the disease. Briefly, T cell clone is incubated in the presence of stimulating MBP peptide and peptide analog or control peptide (SWM) or medium only. After a 24 hour incubation, the levels of TNF-α and IFN-γ in the supernatant are determined using commercially available EIA kits (Endogen, Cambridge, Mass.).
The ability of the peptide analog ligand to influence cytokine production was next measured. The Dr2b-restricted T cell clone 5F6 was incubated in the presence of 3 μM MBP peptide with either 10 μM of NBI-5788 (SEQ ID NO:7) or SWM or medium only. As a control, cells were cultured in the presence of medium alone. After 24 hours, supernatants were removed and the levels of tumor necrosis factor alpha (TNF-α) and interferon-y (IFN-γ) determined using commercially available EIA kits.

The test system of data set [3] is rat MHC class II I-A or I-E on splenic adherent cells. As to the kind of experiment: MHC binding assay (competition with biotin-labeled MBP peptide, flow cytometry). Details: species or system Lewis rat. To be noted: at 100 μM. How it is done: Binding of peptides to MHC molecules may be assayed on whole cells. Briefly, Lewis rat spleen cells are cultured for 3 hours to allow adherent cells to stick to polystyrene petri dishes. Non-adherent cells are removed. Adherent cells, which contain cells expressing MHC class II molecules, are collected by scraping the dishes. The binding of peptide analogs to cells is measured by a fluorescence assay. In this assay, splenic adherent cells are mixed with different concentrations of peptide analogs and incubated for 1 hour at 37° in a CO2 incubator. Following incubation, biotinlabeled MBP (87-99) is added to the culture wells. The cells are incubated for another hour and then washed three times in medium. […] Fluorescence intensity is calculated by subtracting the fluorescence value obtained from cells stained with phycoerythrin-streptavidin alone (control staining) from the fluorescence value obtained from biotin-labeled MBP native peptide plus phycoerythrin-streptavidin (experimental staining). […] Percent inhibition is calculated for each analog and expressed as IC50 values.
The ability of MBP peptides and peptide analogs to bind MHC was measured. […] The binding of MBP (87-99) analogs was measured using a fluorescence assay. […] Percent inhibition was calculated for each analog and expressed as IC50 values.
For orientation: In flow cytometry, cells or beads pass a laser one at a time.

For the next data set, the system named is EAE in Lewis rats. Nature of the data set: Treatment of MBP(83-99)-induced EAE in Lewis rats with peptide analogs (subcutaneous). Type of data set: in vivo, Lewis rat. To be noted: 13.2 mg/kg subcutaneously on day 9, FIGS. 10 and 11. The method, then: In this system, experimental allergic encephalomyelitis (EAE) was induced in twelve female Lewis rats by injection of MBP(83-99) peptide in complete Freund's adjuvant (CFA) at the base of the tail. Nine days later, rats were divided into two groups of six animals and subcutaneously injected with 13.2 mg/kg of either peptide analog or a control peptide, sperm whale myoglobin (SWM) (110-121). Animals were monitored daily for disease symptoms and scored in a blinded fashion on a nonlinear ascending scale of 0-4 with increments denoting increasing paralysis. Each individual score was averaged with group cohorts to obtain the mean clinical score.

Data set [4] relates to Dr4 Dw4 restricted human T cell clone MS-1. Nature of the data set: Human T cell proliferation, Dr4 Dw4 restricted clone MS-1. Type of data set: cell-based. To be noted: FIG. 20. How it is done: as §1
The ability of the peptide analogs NBI-5719, 5748, 5765, 5788 and 5789 (SEQ ID NOs: 4-8 respectively) to affect human T cell proliferation was assessed. […] The amount of tritiated thymidine incorporated was measured, and the data represented as the mean plus or minus the standard error of the mean of replicate samples.

The next data set concerns EAE in SJL/J mice. Nature of the data set: Inhibition of chronic relapsing EAE in SJL/J mice. Type of data set: in vivo, mouse. To be noted: 20 mg/kg intraperitoneally weekly for 4 weeks. The method, then: The SJL/J (H-2^5) mouse develops a chronic relapsing form of EAE in response to immunization with MBP(83-99) peptide in the presence of pertussis vaccine. The ability of the peptide analogs NBI-5719 (SEQ ID NO:4) and NBI-5765 (SEQ ID NO:6) to inhibit the disease was evaluated (see FIG. 12).
Groups of 10 animals were injected intraperitoneally weekly for 4 weeks with 20 mg/kg of either a control peptide or the peptide analog. The animals were then monitored for disease over the next 2-3 months. […] Beginning around day 70, a relapse occurred reaching a mean clinical score of about 1. […] This is particularly striking since the animals had not been exposed to the APL for approximately one month.

For another data set, the system named is MS patients. To be noted: human, in vivo; cited from earlier work.

Non-standard residues stand in square brackets, D forms with d. No end group written: not given here.

Regarding “NBI-5789: peptide analog of MBP (83-99), SEQ ID NO:8, sequence in FIG. 8 ([dA]KPVVHAFANIVTPRTP)”, in data set [1], the “inhibition of MBP-dependent proliferation of clone 5F6” value was “inhibited the MBP-dependent proliferation in a concentration dependent fashion”. The “stimulation of cytokine production over background by the analog itself” value in data set [2] is recorded as “None”.
Regarding “a83, A89, A91: analog with residue 83 altered to D-alanine, residue 89 to alanine, and residue 91 to alanine”, the “inhibition of binding of biotin-labeled MBP peptide to MHC” value in data set [3] is listed as 25%.
In the case of “NBI-5765: peptide analog of MBP (83-99), SEQ ID NO:6, sequence in FIG. 8 ([dA]NPVVHAFANIVTPRTP)”, the “inhibition of MBP-dependent proliferation of clone 5F6” value in data set [1] is on record as “inhibited the MBP-dependent proliferation in a concentration dependent fashion”. Also, the “effect on EAE disease severity versus control peptide” value in the data set with EAE in Lewis rats is listed as “significantly reduced the magnitude of the disease”. In addition, the “stimulation of cytokine production over background by the analog itself” value in data set [2] was “None”. Besides, in data set [4], the “inhibition of MBP-dependent proliferation of clone MS-1” value is “inhibited the MBP-dependent proliferation in a concentration dependent fashion”. Also, the “effect on first phase of EAE” value in the data set on EAE in SJL/J mice (FIG. 12) was “reduced the level of the disease in the first phase”. For the same molecule, in the data set with EAE in SJL/J mice (relapse around day 70), the “effect on relapse of EAE” value was “reduced the severity of the relapse”.

B1: IFN-γ: cytokine administered in a pilot study in MS patients (protein, UniProt P01579 24-161, looked up)
Interferon gamma: QDPYVKEAENLKKYFNAGHSDVADNGTLFLGILKNWKEESDRKIMQSQIVSFYFKLFKNFKDDQSIQKSVETIKEDMNVKFFNSNKKKRDDFEKLTNYSVTDLNVQRKAIHELIQVMAELSPAAKTGKRKRSQMLFRG
For the molecule B1, in the data set with MS patients, the “patients with a clinical exacerbation within one month after initiation of treatment” value is 7 of 18.
